{"source": "paper PMC5867518", "about": "(Cell metabolism, 2015)", "experiment_in_all_cases": "PI3-kinase", "type_in_all_cases": "biochemical", "key": {"PI3Kδ (p110δ/p85α)": {"biological_target": "PI3Kδ (p110δ/p85α) (Homo sapiens, UniProt O00329)", "sequence (O00329 whole entry)": "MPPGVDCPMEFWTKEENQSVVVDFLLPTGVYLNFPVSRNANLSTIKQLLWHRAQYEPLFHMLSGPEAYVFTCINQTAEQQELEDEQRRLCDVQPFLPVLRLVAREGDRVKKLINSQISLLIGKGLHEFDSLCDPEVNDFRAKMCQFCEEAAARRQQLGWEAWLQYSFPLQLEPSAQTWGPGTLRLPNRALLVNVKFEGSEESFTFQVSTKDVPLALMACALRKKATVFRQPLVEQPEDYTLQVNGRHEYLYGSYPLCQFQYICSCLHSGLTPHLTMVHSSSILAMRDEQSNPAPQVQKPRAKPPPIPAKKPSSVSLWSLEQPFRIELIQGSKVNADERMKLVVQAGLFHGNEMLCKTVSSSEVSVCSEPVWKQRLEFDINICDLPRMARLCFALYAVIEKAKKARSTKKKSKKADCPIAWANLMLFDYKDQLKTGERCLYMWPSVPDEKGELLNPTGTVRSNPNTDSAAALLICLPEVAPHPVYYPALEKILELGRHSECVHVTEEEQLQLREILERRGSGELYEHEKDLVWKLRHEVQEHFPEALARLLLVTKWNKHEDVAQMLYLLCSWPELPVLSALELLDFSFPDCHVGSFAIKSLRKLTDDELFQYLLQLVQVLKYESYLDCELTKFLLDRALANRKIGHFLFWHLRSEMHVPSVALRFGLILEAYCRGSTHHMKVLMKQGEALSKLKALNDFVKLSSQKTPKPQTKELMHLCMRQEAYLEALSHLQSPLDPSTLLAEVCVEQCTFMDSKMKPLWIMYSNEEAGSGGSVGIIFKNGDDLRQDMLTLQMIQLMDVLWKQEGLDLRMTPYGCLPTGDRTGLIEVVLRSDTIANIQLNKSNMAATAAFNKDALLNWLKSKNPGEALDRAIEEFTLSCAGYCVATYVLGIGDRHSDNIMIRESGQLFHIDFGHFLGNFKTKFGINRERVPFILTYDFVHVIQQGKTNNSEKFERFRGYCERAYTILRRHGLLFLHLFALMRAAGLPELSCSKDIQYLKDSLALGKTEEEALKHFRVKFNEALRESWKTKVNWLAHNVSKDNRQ", "sequence (P27986 2-724 partner)": "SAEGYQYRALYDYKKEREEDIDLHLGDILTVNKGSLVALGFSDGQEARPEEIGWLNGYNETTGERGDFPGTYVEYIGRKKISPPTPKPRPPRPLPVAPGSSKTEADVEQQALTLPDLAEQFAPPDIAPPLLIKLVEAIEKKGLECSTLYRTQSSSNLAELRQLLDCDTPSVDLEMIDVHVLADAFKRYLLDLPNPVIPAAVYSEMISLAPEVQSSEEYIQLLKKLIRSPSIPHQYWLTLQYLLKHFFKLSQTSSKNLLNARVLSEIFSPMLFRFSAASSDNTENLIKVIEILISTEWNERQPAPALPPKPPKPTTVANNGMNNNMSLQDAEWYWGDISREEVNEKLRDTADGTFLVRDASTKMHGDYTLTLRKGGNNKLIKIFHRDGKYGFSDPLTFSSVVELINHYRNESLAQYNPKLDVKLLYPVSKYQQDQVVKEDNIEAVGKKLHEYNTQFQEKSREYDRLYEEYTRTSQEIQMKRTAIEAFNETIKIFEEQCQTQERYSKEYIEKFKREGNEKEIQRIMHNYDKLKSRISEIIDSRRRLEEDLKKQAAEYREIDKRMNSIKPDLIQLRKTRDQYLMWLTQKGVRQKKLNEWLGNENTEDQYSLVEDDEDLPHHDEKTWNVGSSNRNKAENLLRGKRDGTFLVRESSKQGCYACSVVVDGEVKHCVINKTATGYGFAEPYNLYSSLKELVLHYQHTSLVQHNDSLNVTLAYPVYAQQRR"}, "PI3Kα (p110α/p85α)": {"biological_target": "PI3Kα (p110α/p85α) (Homo sapiens, UniProt P42336)", "sequence (P42336 whole entry)": "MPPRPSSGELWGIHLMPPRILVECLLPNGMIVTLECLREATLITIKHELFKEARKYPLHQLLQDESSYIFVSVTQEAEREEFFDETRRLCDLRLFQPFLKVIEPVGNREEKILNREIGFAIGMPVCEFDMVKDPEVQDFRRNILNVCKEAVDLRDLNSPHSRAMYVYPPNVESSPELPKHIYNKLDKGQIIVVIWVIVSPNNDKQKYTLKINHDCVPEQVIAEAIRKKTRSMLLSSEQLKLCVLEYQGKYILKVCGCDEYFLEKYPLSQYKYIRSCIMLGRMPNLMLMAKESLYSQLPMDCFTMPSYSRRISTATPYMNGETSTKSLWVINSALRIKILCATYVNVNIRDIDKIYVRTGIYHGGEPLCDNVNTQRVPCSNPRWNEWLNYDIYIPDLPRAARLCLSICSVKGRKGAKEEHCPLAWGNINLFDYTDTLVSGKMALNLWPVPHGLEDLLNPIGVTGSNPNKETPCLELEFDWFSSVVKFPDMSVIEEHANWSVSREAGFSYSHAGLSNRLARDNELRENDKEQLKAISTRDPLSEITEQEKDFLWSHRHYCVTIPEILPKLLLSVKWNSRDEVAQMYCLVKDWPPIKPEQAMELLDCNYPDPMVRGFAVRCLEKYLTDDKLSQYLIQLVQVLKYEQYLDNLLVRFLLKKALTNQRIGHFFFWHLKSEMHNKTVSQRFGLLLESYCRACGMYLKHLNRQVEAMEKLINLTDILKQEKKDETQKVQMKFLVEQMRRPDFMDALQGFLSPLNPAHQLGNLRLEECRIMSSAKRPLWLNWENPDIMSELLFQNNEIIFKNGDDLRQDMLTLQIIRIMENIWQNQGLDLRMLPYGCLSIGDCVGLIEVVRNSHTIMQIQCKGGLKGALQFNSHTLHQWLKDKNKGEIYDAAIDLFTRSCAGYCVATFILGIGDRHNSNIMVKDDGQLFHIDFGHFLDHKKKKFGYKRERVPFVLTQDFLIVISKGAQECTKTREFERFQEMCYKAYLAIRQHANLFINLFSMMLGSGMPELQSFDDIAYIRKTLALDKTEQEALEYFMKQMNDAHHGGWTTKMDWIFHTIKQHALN", "sequence (P27986 2-724 partner)": "as the sequence (P27986 2-724 partner) above"}, "PI3Kγ (p110γ)": {"biological_target": "PI3Kγ (p110γ) (Homo sapiens, UniProt P48736)", "sequence (P48736 whole entry)": "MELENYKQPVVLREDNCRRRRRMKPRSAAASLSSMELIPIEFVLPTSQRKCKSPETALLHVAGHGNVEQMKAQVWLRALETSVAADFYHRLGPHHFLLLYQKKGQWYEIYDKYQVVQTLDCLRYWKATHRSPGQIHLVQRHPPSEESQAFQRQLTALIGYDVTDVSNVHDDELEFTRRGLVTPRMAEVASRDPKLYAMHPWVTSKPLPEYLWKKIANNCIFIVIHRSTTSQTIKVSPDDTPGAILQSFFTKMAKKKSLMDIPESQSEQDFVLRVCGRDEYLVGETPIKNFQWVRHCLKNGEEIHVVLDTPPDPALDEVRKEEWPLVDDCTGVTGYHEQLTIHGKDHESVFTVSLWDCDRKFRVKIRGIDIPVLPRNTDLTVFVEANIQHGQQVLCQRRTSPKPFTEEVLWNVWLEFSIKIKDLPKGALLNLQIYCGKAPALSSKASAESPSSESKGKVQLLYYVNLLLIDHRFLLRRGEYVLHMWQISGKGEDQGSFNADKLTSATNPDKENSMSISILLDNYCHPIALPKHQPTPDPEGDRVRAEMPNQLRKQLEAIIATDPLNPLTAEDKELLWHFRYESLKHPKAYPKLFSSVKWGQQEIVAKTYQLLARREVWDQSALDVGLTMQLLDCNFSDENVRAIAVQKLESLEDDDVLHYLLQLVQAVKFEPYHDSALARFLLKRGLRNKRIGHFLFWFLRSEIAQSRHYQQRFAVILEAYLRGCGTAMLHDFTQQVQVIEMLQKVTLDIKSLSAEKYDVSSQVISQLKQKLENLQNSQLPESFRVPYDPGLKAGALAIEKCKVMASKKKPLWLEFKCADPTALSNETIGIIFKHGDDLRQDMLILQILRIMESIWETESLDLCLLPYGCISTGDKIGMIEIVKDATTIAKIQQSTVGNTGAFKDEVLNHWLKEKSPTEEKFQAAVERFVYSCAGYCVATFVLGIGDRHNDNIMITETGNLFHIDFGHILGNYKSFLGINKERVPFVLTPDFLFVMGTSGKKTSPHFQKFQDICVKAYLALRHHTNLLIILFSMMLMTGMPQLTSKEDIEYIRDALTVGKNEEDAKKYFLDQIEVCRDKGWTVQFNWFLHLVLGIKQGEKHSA"}}, "data": [{"substance": "CNIO-PI3Ki", "values": [{"measurement": "IC50", "setting": "PI3Kδ (p110δ/p85α)", "value": 2.5, "unit": "nM"}, {"measurement": "IC50", "setting": "PI3Kα (p110α/p85α)", "value": 2.4, "unit": "nM"}, {"measurement": "IC50", "setting": "PI3Kγ (p110γ)", "value": 44, "unit": "nM"}]}]}
